{"source": "patent US4294832A", "about": "“Tetrahydroisoquinoline compounds and a pharmaceutical composition thereof” (Tanabe Seiyaku Co., Ltd., priority 1979, dated 1981)", "key": {"[1]": {"test_system": "spontaneously hypertensive rats (SHR)", "test": "Hypotensive activity in SHR (systolic blood pressure, tail plethysmographic technique)", "assay_type": "in vivo, rat", "conditions": "50 mg/kg orally", "description": "Hypotensive activity in SHR:\nA test compound (dose: 50 mg/kg) suspended in an aqueous carboxymethylcellulose solution was administered orally to spontaneously hypertensive rats (SHR) fasted overnight. The systolic blood pressure of the rats was measured by the tail plethysmographic technique (The Journal of Laboratory and Clinical Medicine 78(1971), page 957). The hypotensive activity of the test compound was estimated from the decreased level of blood pressure."}, "mice": {"test_system": "mice", "test": "Oral toxicity in mice", "assay_type": "in vivo, mouse", "conditions": "2 g/kg orally", "description": "Furthermore, when a test compound was administered orally to spontaneously hypertensive rats, 3(S)-2-[N-ethyl-N-(2-n-butoxycarbonylethyl)carbamoyl]-1,2,3,4-tetrahydroisoquinoline-3-carboxylic acid 1/2 calcium salt at a dose of 50 mg/kg decreased the blood pressure by 24 mm Hg. In addition, the toxicity of the compound (I) is considerably low. For example, when 3(S)-2-[N-ethyl-N-(2-n-butoxycarbonylethyl)carbamoyl]-1,2,3,4-tetrahydroisoquinoline-3-carboxylic acid 1/2 calcium salt was administered orally to mice at a dose of 2 g/kg, no mouse died within 7 days after said administration."}}, "note": "Where a name gives a salt, the structure may show the parent alone."}
{"smiles": "CCCCOC(=O)CCN(CC)C(=O)N1Cc2ccccc2C[C@H]1C(=O)O", "note": "[3(S)-2-[N-ethyl-N-(2-n-butoxycarbonylethyl)carbamoyl]-1,2,3,4-tetrahydroisoquinoline-3-carboxylic acid 1/2 calcium salt]", "values": [{"measurement": "Decrease in blood pressure (-Δ mm Hg)", "setting": "[1]; SHR fasted overnight, systolic", "value": 24, "unit": "mm Hg"}, {"measurement": "Duration of action", "setting": "[1]; hypotensive action, SHR", "value": "> 6", "unit": "h"}, {"measurement": "mortality within 7 days after administration", "setting": "mice", "value": "no mouse died"}]}
